The values that follow come from patent US5744469A, “Method for treating dermatitis” (Eli Lilly and Company, priority 1996, dated 1998).

The subject of data set [1] is apomorphine-induced climbing behavior and hypothermia. The note with it: mice; cited from earlier work.
Data set [2] can be described thus: detection of radiolabelled compound in saliva. In kind it is in vivo. On the procedure: For example, in the treatment of adult humans, dosages of from about 5 to 20 mg per day may be used. A once a day dosage is normally sufficient, although divided doses may be administered. For treatment of fungal dermatitis in a human, a dose range of from about […], preferably 5 to 20 mg per day is suitable.

Data set [3] deals with conditioned avoidance response. The following applies: rats; cited from earlier work.
For a further data set, the system named is fungal dermatitis. Kind of data set: double-blind, randomized, placebo and haloperidol-controlled clinical trial. The data set is classed as in vivo. The following applies: human, 15±2.5 mg/day vs haloperidol (15±5 mg/day), double-blind extension treatment phase. How it is done:
Such effectiveness for the treatment, amelioration of fungal dermatitis was shown in the following clinical trial:
The study was a double-blind, randomized, parallel, placebo and haloperidol-controlled study of 55 human subjects. The study was conducted in 23 study centers throughout the United States and Canada. […] The acute phase lasted for 6 weeks with evaluations performed weekly followed by a double-blind extension phase of at least one year.

Consider `Cc1cc2c(s1)Nc1ccccc1N=C2N1CCN(C)CC1` [2-methyl-4-(4-methyl-1-piperazinyl)-10H-thieno[2,3-b][1,5]benzodiazepine], for which, in data set [1], the apomorphine-induced climbing behavior entry was “antagonized” and the apomorphine-induced hypothermia entry was “antagonized”. The “detection in the saliva” value in data set [2] is “can be detected in the saliva”. The conditioned avoidance response result in data set [3] is “inhibits”. The “occurrence of fungal dermatitis versus haloperidol” value in the data set on fungal dermatitis is “statistically significantly less frequently”.
